Article PMC8217813, “Bridging Computational Vaccinology and Vaccine Development Through Systematic Identification, Characterization, and Downselection of Conserved and Variable Circumsporozoite Protein CD4 T Cell Epitopes From Diverse Plasmodium falciparum Strains” (Frontiers in Immunology, 2021)

How the values were obtained:
[1] = system: CD4 T cells co-cultured with autologous DCs from PBMCs; assay type: cell-based, human; details: positive = Stimulation Index ≥1.5-fold above baseline, 5 µg/mL peptide
HLA A*0101 = biological target: T1, HLA A*0101 (Homo sapiens, UniProt P04439, A114D/A174V/A182V/D101N/D185E/E176A/E190D/L180R/Q94H/R68K/S129P/T187R/V100A/V91M/W191G); test: biochemical; assay type: binding; details: allele A0101; cell-free competition with fluorescently labeled control peptide, fluorescence polarization at 72 hours
T1 construct: Pure Protein, LLC (ran the assay)

IKKYLKKIKNSISTEWSPCS [ICS6]
Percentage of donors demonstrating IFN-γ responses, DR1 ([1]; DR1 donors N=5, ICCS after 14-day co-culture): 20% | Percentage of donors demonstrating IL-2 responses, DR1 ([1]; DR1 donors N=5, ICCS): 20% | Percentage of donors demonstrating IL-4 responses, DR1 ([1]; DR1 donors N=5, ICCS): 0% | Percentage of donors demonstrating IL-10 responses, DR1 ([1]; DR1 donors N=5, ICCS): 20% | Percentage of donors demonstrating TNF-α responses, DR1 ([1]; DR1 donors N=5, ICCS): 20% | Percentage of donors demonstrating IFN-γ responses, DR3 ([1]; DR3 donors N=6, ICCS after 14-day co-culture): 50% | Percentage of donors demonstrating IL-2 responses, DR3 ([1]; DR3 donors N=6, ICCS): 33% | Percentage of donors demonstrating IL-4 responses, DR3 ([1]; DR3 donors N=6, ICCS): 0% | Percentage of donors demonstrating IL-10 responses, DR3 ([1]; DR3 donors N=6, ICCS): 17% | Percentage of donors demonstrating TNF-α responses, DR3 ([1]; DR3 donors N=6, ICCS): 33% | Percentage of donors demonstrating IFN-γ responses, DR4 ([1]; DR4 donors N=10, ICCS after 14-day co-culture): 40% | Percentage of donors demonstrating IL-2 responses, DR4 ([1]; DR4 donors N=10, ICCS): 30% | Percentage of donors demonstrating IL-4 responses, DR4 ([1]; DR4 donors N=10, ICCS): 0% | Percentage of donors demonstrating IL-10 responses, DR4 ([1]; DR4 donors N=10, ICCS): 30% | Percentage of donors demonstrating TNF-α responses, DR4 ([1]; DR4 donors N=10, ICCS): 30% | Percentage of donors demonstrating IFN-γ responses, DR7 ([1]; DR7 donors N=4, ICCS after 14-day co-culture): 50% | Percentage of donors demonstrating IL-2 responses, DR7 ([1]; DR7 donors N=4, ICCS): 50% | Percentage of donors demonstrating IL-4 responses, DR7 ([1]; DR7 donors N=4, ICCS): 0% | Percentage of donors demonstrating IL-10 responses, DR7 ([1]; DR7 donors N=4, ICCS): 50% | Percentage of donors demonstrating TNF-α responses, DR7 ([1]; DR7 donors N=4, ICCS): 25% | Percentage of donors demonstrating IFN-γ responses, DR8 ([1]; DR8 donors N=4, ICCS after 14-day co-culture): 25% | Percentage of donors demonstrating IL-2 responses, DR8 ([1]; DR8 donors N=4, ICCS): 0% | Percentage of donors demonstrating IL-4 responses, DR8 ([1]; DR8 donors N=4, ICCS): 0% | Percentage of donors demonstrating IL-10 responses, DR8 ([1]; DR8 donors N=4, ICCS): 0% | Percentage of donors demonstrating TNF-α responses, DR8 ([1]; DR8 donors N=4, ICCS): 0% | Percentage of donors demonstrating IFN-γ responses, DR9 ([1]; DR9 donors N=4, ICCS after 14-day co-culture): 50% | Percentage of donors demonstrating IL-2 responses, DR9 ([1]; DR9 donors N=4, ICCS): 50% | Percentage of donors demonstrating IL-4 responses, DR9 ([1]; DR9 donors N=4, ICCS): 25% | Percentage of donors demonstrating IL-10 responses, DR9 ([1]; DR9 donors N=4, ICCS): 25% | Percentage of donors demonstrating TNF-α responses, DR9 ([1]; DR9 donors N=4, ICCS): 50% | Percentage of donors demonstrating IFN-γ responses, DR11 ([1]; DR11 donors N=4, ICCS after 14-day co-culture): 50% | Percentage of donors demonstrating IL-2 responses, DR11 ([1]; DR11 donors N=4, ICCS): 25% | Percentage of donors demonstrating IL-4 responses, DR11 ([1]; DR11 donors N=4, ICCS): 0% | Percentage of donors demonstrating IL-10 responses, DR11 ([1]; DR11 donors N=4, ICCS): 25% | Percentage of donors demonstrating TNF-α responses, DR11 ([1]; DR11 donors N=4, ICCS): 50% | Percentage of donors demonstrating IFN-γ responses, DR13 ([1]; DR13 donors N=7, ICCS after 14-day co-culture): 43% | Percentage of donors demonstrating IL-2 responses, DR13 ([1]; DR13 donors N=7, ICCS): 29% | Percentage of donors demonstrating IL-4 responses, DR13 ([1]; DR13 donors N=7, ICCS): 0% | Percentage of donors demonstrating IL-10 responses, DR13 ([1]; DR13 donors N=7, ICCS): 0% | Percentage of donors demonstrating TNF-α responses, DR13 ([1]; DR13 donors N=7, ICCS): 43% | Percentage of donors demonstrating IFN-γ responses, DR15 ([1]; DR15 donors N=7, ICCS after 14-day co-culture): 43% | Percentage of donors demonstrating IL-2 responses, DR15 ([1]; DR15 donors N=7, ICCS): 29% | Percentage of donors demonstrating IL-4 responses, DR15 ([1]; DR15 donors N=7, ICCS): 14% | Percentage of donors demonstrating IL-10 responses, DR15 ([1]; DR15 donors N=7, ICCS): 43% | Percentage of donors demonstrating TNF-α responses, DR15 ([1]; DR15 donors N=7, ICCS): 43%

LSTEWSPCS [327_3D7 (9)]
IC50 (nM) (HLA A*0101): Non-Binder

NVDENANAN [Cluster 292_3D7]
IC50 (nM) (HLA A*0101): Non-Binder

NVDPNANPNV [Cluster 109_3D7]
IC50 (nM) (HLA A*0101): Non-Binder
